pIC50: −log10 of the molar value. “Also recorded” adds a separate entry of the source. Like-named read-outs stand apart in the source and are kept apart here.
Experiments:
BSC1 cells = assay type: cell-based, monkey
human Eg5 = biological target: T1, human Eg5 (Homo sapiens, UniProt P52732); test: In vitro NADH enzyme coupled ATPase assay with purified recombinant human Eg5 (Eg5-405); assay type: biochemical
T1 construct: human Eg5 (N-terminal 405 amino acids and 6-His tagged at C terminus); made in house; host or cells: E. coli BL21 pLysS (DE3), plasmid pRSETa
T1 sequence (P52732 1-405 limits assumed): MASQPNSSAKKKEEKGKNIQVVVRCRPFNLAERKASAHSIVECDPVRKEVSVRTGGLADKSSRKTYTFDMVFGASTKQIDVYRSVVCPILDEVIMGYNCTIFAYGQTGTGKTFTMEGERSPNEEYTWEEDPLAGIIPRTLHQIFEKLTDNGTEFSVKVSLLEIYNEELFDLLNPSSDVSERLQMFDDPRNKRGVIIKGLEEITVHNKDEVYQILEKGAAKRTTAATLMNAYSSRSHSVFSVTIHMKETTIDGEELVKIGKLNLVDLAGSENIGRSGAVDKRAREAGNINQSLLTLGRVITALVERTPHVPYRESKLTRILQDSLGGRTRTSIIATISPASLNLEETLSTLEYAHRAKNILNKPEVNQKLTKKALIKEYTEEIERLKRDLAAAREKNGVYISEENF
Text: FIG. 7 depicts a description of the NADH enzyme coupled ATPase assay used to study the inhibition of the ability of purified human recombinant Eg5 to hydrolyze ATP in the presence and absence of 22C16 and monastrol.
(§1) In vitro NADH Enzyme Coupled A TPase: (variation on Methods Described in Crevel, Lockhart, and Cross. J. Mol. Biol. (1997) 273, 160-170.)
For a brief description as the ATPase assay used in the present example, see FIG. 7.
(§2) A solution containing the microtubule resuspension buffer was supplemented with 1 mM Mg-ATP, 100 uM nicotinamide adenine dinucleotide (NADH), 1 mM phosphoenol pyruvate, 5 ug/ml pyruvate kinase, 7.5 ug/ml lactate dehydrogenase, 0.7 uM resuspended microtubules, and 0.5% dimethylsulfoxide (DMSO).
Next, serial dilutions of the compound 22C16 were prepared in the supplemented microtubule resuspension buffer. Purified recombinant human Eg5 protein was added resulting in a final concentration of 50 uM. The subsequent fluorescent reaction was measured in NUNC black walled 384 well plates at 340 nm using a Wallac plate reader.

BS-C-1 cells = test: Cell assay for formation of mono-astral spindle structures (immunofluorescence, DAPI / anti-alpha-tubulin); assay type: cell-based, monkey; settings: for pIC50: Primates, BSC-1, BS-C-1 cells, direct comparison, unpublished observations of Mayer and Mitchison, read-out: IC50 (median inhibitory concentration), formation of mono-astral structures
Procedure: When the effects of 22C16 and monastrol on microtubule structure were directly compared, it was shown by examining formation of mono-astral structures that 22C16 has an IC50 (median inhibitory concentration) of approximately 2 uM as compared to the IC50 of approximately 20 uM for monastrol (Mayer and Mitchison, unpublished observations). For experimental details on the cell assay to determine mono-astral structures, see Mayer et al. Science 286:971-974, 1999. Images of live BS-C-1 cells were taken as described (Cramer et al. Curr. Opin. Cell. Biol. 67:82, 1994). Briefly, for immunofluorescence, BS-C-1 cells were stained with DAPI (4′,6-diamidino-2-phenylindole; Sigma-Aldrich) to visualize DNA and anti-α-tubulin (DM1 A; Sigma-Aldrich, St. Louis) to visualize spindle structure.

[1] = biological target: T2, conventional human kinesin (Homo sapiens, UniProt P33176); test: NADH enzyme coupled ATPase assay with conventional human kinesin (K560); assay type: biochemical; settings: N-terminal 560 amino acids, 6-His tag
T2 construct: human kinesin (N-terminal 560 amino acids of full length protein followed by 6-His tag at C terminus); made in house; host or cells: E. coli BL21 pLysS (DE3) (the purification section covers Eg5-405 and K560)
T2 sequence (P33176 1-560): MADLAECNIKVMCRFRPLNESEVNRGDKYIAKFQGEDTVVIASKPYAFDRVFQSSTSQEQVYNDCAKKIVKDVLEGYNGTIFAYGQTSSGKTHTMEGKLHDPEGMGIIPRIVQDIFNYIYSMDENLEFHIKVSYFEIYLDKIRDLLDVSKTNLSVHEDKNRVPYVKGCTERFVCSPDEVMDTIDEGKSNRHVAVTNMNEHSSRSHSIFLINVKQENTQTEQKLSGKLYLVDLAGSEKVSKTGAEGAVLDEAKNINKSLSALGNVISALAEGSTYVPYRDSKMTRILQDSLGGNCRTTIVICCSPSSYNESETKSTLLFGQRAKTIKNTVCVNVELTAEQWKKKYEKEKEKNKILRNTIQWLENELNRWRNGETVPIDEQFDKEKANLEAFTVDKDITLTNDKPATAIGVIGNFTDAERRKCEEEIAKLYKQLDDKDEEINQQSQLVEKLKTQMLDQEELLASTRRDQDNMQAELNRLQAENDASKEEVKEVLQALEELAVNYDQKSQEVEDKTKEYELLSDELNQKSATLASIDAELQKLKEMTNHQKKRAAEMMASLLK
Procedure: Since the effect of 22C16 on mono-astral formation in mammalian cells was similar to that of cells treated with monastrol, the ability of 22C16 to inhibit kinesins was examined.
Purification of Eg5-405 and K560 (560 Amino Acid Kinesin Construct):
as §1, §2

full length Xenopus Eg5 = biological target: T3, full length Xenopus Eg5 (Xenopus laevis, UniProt P28025); test: Microtubule motility driven by full length Xenopus Eg5, with washout; assay type: biochemical; settings: full length Xenopus Eg5, washout experiment
T3 construct: Full length Xenopus Eg5 was expressed in baculovirus according to standard protocols; made in house
T3 sequence (P28025 1-1067): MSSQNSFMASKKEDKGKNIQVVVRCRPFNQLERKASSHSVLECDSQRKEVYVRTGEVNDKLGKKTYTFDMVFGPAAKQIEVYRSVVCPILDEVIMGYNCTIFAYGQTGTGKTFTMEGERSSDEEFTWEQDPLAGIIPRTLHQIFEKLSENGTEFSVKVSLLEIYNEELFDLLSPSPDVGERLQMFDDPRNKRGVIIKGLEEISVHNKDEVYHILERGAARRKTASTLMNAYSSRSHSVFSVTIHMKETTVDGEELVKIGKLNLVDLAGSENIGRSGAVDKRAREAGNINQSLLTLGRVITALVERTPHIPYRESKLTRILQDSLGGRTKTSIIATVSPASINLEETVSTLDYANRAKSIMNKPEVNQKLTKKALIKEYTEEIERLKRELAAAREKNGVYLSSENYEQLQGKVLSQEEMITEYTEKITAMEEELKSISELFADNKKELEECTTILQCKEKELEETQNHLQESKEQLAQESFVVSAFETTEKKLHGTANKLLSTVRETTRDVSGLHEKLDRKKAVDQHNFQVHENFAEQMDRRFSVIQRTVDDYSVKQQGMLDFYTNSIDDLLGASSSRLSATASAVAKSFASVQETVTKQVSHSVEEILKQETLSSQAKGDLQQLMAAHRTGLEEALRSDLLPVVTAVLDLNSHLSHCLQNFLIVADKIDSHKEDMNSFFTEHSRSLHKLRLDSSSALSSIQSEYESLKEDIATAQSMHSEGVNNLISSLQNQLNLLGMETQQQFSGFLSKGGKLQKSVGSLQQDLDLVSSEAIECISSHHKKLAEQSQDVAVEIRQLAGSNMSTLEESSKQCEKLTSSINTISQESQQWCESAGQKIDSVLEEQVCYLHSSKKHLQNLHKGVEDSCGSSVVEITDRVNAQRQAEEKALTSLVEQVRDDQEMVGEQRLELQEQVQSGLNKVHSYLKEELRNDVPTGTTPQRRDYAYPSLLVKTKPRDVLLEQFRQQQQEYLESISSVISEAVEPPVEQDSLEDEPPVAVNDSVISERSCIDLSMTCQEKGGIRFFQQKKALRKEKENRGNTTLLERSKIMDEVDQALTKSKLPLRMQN
Procedure: FIG. 2 depicts the results of experiments examining the motility activity of full length Xenopus Eg5 with and without the beta-carboline, 22C16.
In addition, the ability of 22C16 to inhibit microtubule motility driven by Eg5 was examined. For experimental protocols and details, see Mayer et al. Science 286:971-974, 1999. […] For the washout, Eg5-driven microtubule motility in the presence of 22C16 was measured. The assay chamber was then depleted of 22C16 and motility was immediately measured again. Therefore, the results of the experiment depicted in FIG. 2 provide direct evidence that 22C16 inhibits the microtubule motility driven by Eg5.

Row | Structure (SMILES) | effect on Golgi (in words) (BSC1 cells) | effect on interphase microtubules (in words) (BSC1 cells) | pIC50 (human Eg5) | inhibition of ATPase activity of human Eg5 (in words) (human Eg5; Eg5 N-terminal 405 amino acids, 6-His tagged) | potency relative to monastrol in inhibition of ATPase activity of human kinesin Eg5 (human Eg5; ratio of IC50 values) | pIC50 (BS-C-1 cells) | spindle phenotype in mitotic cells (in words) (BS-C-1 cells; mitotic mammalian (BSC1) cells) | inhibition of ATPase activity of conventional human kinesin (in words) [1] | inhibition of microtubule motility driven by Eg5 (in words) (full length Xenopus Eg5) | pIC50 (human Eg5; purified recombinant human Eg5, microtubules, 1 mM Mg-ATP, read-out: IC50, inhibition of Eg5 ATPase activity) | IC50 lower than monastrol (fold), ATPase assay of Example 2 (human Eg5; optically purified trans stereoisomer versus monastrol)
1 | CCCCN1C(=O)C2Cc3c([nH]c4ccccc34)C(c3cccc(O)c3)N2C1=O (stereo not drawn) [22C16] | fragmented the Golgi; also recorded: fragmentation of the Golgi | did not depolymerize interphase microtubules; also recorded: without affecting interphase microtubules | 5.96 | block the ATPase activity; also recorded: capable of inhibiting the ATPase activity; also recorded: inhibits the ability of Eg5 | approximately 5 times | ~5.70 | caused the formation of monopolar spindles; also recorded: formation of mono-astral spindles; also recorded: capable of arresting cells in mitosis; also recorded: form a mono-astral microtubule array surrounded by a ring of chromosomes | but not conventional human kinesin | acts reversibly to inhibit the motility of Eg5; also recorded: reversibly inhibits microtubule motility | – | –
2 | CCOC(=O)C1=C(C)NC(=S)NC1c1cccc(O)c1 (stereo not drawn) [monastrol, reference compound] | – | – | – | – | – | ~4.70 | – | – | – | 5.28 | –
3 | CCCCN1C(=O)C2Cc3c([nH]c4ccccc34)C(c3cccc(O)c3)N2C1=O (stereo not drawn) [trans isomer of monastroline] | – | – | – | – | – | – | – | – | – | – | approximately 8 times
